# How the values were obtained:
# [1] = system: human transporter of dopamine (DAT); assay: Transporter inhibition in recombinant cell line (neurotransmitter transporter uptake assay), DAT; format: cell-based; details: 8.3 µM DAG; CHO-K1 cells, 3 h incubation, fluorescence dye
# 5HT2A receptor = assay: Aquoscreen receptor activity assay, 5HT2A; format: cell-based, human; details: 50 µM DAG in results (8.3 µM in methods); luminescence, triplicates
# CB1 receptor = assay: Aquoscreen receptor activity assay, CB1; format: cell-based, human; details: 50 µM DAG in results (8.3 µM in methods); luminescence, triplicates
# dopamine in NAc shell = assay: In vivo microdialysis, dopamine release in NAc shell; set-up: species or system Wistar rats; details: n = 8 per group
# Text: Male and female Rcc Han Wistar rats (8–12 weeks old at arrival; Envigo, Horst, Netherlands) were used for the alcohol drinking and locomotor activity experiments as they drink alcohol to intoxicating levels. For in vivo microdialysis studies male Wistar rats (Charles River, Calco, Italy) were used as they display robust dopamine levels in NAc shell after alcohol injection. […] All rodents were allowed to habituate to the animal facility at least one week before they entered an experiment. […] The sample sizes of each experiment were based on previous experience in which statistical significance has been detected. The person who conducted the experiments, and analyzed the collected data was aware of the treatment allocation. Only preset exclusion criteria were used when analyzing the data obtained in attempts to exclude confounding factors in analyzing data. In the alcohol drinking experiments leaking bottles and low alcohol consumption (<3.0 g/kg for males; <3.5 g/kg for females) were preset exclusion criteria. The preset exclusion criterion in the ex vivo HPLC-EC, ELISA, and recombinant cell line experiments was contamination of the sample. Misplaced probes, technical difficulties, and damages to the surgery area were preset exclusion criteria for the in vivo microdialysis experiment. Intra-cage male aggression was the preset exclusion criterion for the locomotor activity and CPP experiments. To minimize tentative confounding factors, the order of treatments was stratified, with treatments being mixed for each animal cage and for each apparatus used as well as balancing the alcohol intake between future treatment groups. […]
# The data from drinking experiments were analyzed by unpaired t-test or repeated two-way ANOVA. A two-tailed unpaired t-test analyzed the ELISA, ex vivo HPLC-EC, and cFOS data. […] A one-way ANOVA with Bonferroni post hoc tests and unpaired t-test analyzed the locomotor activity and CPP data, respectively. The in vivo microdialysis experiments were evaluated by a repeated two-way ANOVA followed by the Bonferroni post hoc test.
# male and female rats = assay: Intermittent-access alcohol drinking, acute DAG injection; format: in vivo, Rcc Han Wistar rats; details: for intake of alcohol, water, total fluid, food, alcohol preference, body weight: male and female rats
# Text: Male and female Rcc Han Wistar rats (8–12 weeks old at arrival; Envigo, Horst, Netherlands) were used for the alcohol drinking and locomotor activity experiments as they drink alcohol to intoxicating levels. For in vivo microdialysis studies male Wistar rats (Charles River, Calco, Italy) were used as they display robust dopamine levels in NAc shell after alcohol injection. […] All rodents were allowed to habituate to the animal facility at least one week before they entered an experiment. During housing (20 °C with 50% humidity) the rodents had free access to water and standard chow (Teklad Rodent Diet; Envigo, Madison, WI, USA). These experiments were approved by the Ethics Committee for Animal Experiments (ethical numbers: 1457/18, 3276/18, 1556/18, 3348/20; Gothenburg, Sweden) and followed the ARRIVE guidelines. The sample sizes of each experiment were based on previous experience in which statistical significance has been detected. The person who conducted the experiments, and analyzed the collected data was aware of the treatment allocation. Only preset exclusion criteria were used when analyzing the data obtained in attempts to exclude confounding factors in analyzing data. In the alcohol drinking experiments leaking bottles and low alcohol consumption (<3.0 g/kg for males; <3.5 g/kg for females) were preset exclusion criteria. The preset exclusion criterion in the ex vivo HPLC-EC, ELISA, and recombinant cell line experiments was contamination of the sample. Misplaced probes, technical difficulties, and damages to the surgery area were preset exclusion criteria for the in vivo microdialysis experiment. Intra-cage male aggression was the preset exclusion criterion for the locomotor activity and CPP experiments. To minimize tentative confounding factors, the order of treatments was stratified, with treatments being mixed for each animal cage and for each apparatus used as well as balancing the alcohol intake between future treatment groups. Although each experiment only was performed once, they were separated over different laboratory days with equal data obtained between sessions.
# Alcohol (95%; Solveco AB, Stockholm, Sweden) was either diluted to a 20% solution using tap water (drinking experiment) or to a 15% (w/v) solution with 0.9% NaCl. Alcohol was in the behavioral and neurochemical tests injected (intraperitoneally, IP) 5 min before the test. A dose of 1.75 g/kg was used in male mice as it causes robust locomotor stimulation and induces a CPP [37–39], and 2 g/kg was used for rats as it elevates the dopamine levels in NAc shell. DAG (Tocrise Bioscience, Bristol, UK) was dissolved in 0.9% NaCl in doses (0.25–2 mg/kg) known to reduce food intake and DAG was injected IP).
# Individually housed rats had intermittent access to an alcohol (20%) bottle and a water bottle, three 24-h sessions per week, and only water bottles the remaining days. A reversed light/dark cycle was used, and the bottles were changed when the lights went out. First, the rats consumed alcohol for 10 weeks (baseline drinking), where the bottles and food were weighed daily and the body weight weekly. During treatments, the bottles and food were weighed at 4- and/or 24-h and the body weight was measured daily. In the first drinking experiment, the potential of DAG to reduce alcohol consumption was tested and therefore, vehicle or DAG (1 mg/kg) was acutely injected into male (n = 12) or female (n = 12) rats. The second drinking experiment was conducted to establish the effects of lower DAG doses on alcohol intake. Therefore, separate male (n = 18) or female (n = 18) rats, were acutely injected with lower DAG doses (0.5 or 0.25 mg/kg) or vehicle. The third alcohol drinking experiment evaluated the ability of repeated DAG injections to lower alcohol drinking. Therefore, additional male (n = 24) and female (n = 24) rats were injected with either vehicle or DAG (1 mg/kg) at three alcohol-drinking sessions. […]
# [2] = female rats, acute DAG 1.0 mg/kg IP, n = 5 vs vehicle n = 6, 4 h
# [3] = male rats, acute DAG 1.0 mg/kg IP, n = 5 vs vehicle n = 6, 4 h
# [4] = male rats, acute DAG 1.0 mg/kg IP, n = 5 vs vehicle n = 6, 24 h
substance,measurement,setting,value
"des-acyl ghrelin (GSSFLSPEHQRVQQRKESKKPPAKLQPR; Ghrelin-28 non-acylated; UniProt Q9UBU3 24-51, looked up) [DAG, non-octanoylated form of ghrelin; purchased from Tocris (printed Tocrise Bioscience), dissolved in 0.9% NaCl]",inhibition of DAT,[1],no inhibition
same,activation of 5HT2A,5HT2A receptor,no activation
same,activation of CB1,CB1 receptor,no activation
same,"dopamine in NAc shell, DAG per se",dopamine in NAc shell; DAG 1 mg/kg without alcohol,did not affect dopamine in the NAc shell per se
same,alcohol-induced dopamine release in NAc shell (effect of DAG),"dopamine in NAc shell; male rats (methods), DAG 1 mg/kg plus alcohol vs vehicle-alcohol","suppressed this enhancement (40 min P = 0.0396, 80 min P < 0.0001, 160 min P = 0.0400, 200 min P = 0.0010, 220 min P = 0.0458)"
same,4-h alcohol intake,male and female rats; [2],decreased the 4-h alcohol intake (t9 = 2.05; P = 0.0351)
same,"preference for alcohol, 4-h",male and female rats; [2],reduced it at the I 4-h (t9 = 2.16; P = 0.0294)
same,4-h food intake,"male and female rats; female rats, acute DAG 1.0 mg/kg IP, n = 5 vs vehicle n = 6, 4 h (first statistic)","At neither time point, DAG affected the K, L food intake (t9 = 0.34; P = 0.7414"
same,24-h alcohol intake,"male and female rats; female rats, acute DAG 1.0 mg/kg IP, n = 5 vs vehicle n = 6, 24 h",did not alter the 24-h drinking (t9 = 0.22; P = 0.8331)
same,24-h food intake,"male and female rats; female rats, acute DAG 1.0 mg/kg IP, n = 5 vs vehicle n = 6, 24 h (second statistic)","At neither time point, DAG affected the K, L food intake (t9 = 0.34; P = 0.7414 and t9 = 1.12; P = 0.2909, respectively)"
same,"intake of alcohol, water, total fluid, food, alcohol preference, body weight","male and female rats; acute DAG 0.25 mg/kg IP, n = 6","did not alter the intake of alcohol, water, total fluid, food intake alcohol preference or body weight in male or female rats"
same,"intake of alcohol, water, total fluid, food, alcohol preference, body weight","male and female rats; acute DAG 0.5 mg/kg IP, n = 6 (males n = 5)","did not alter the intake of alcohol, water, total fluid, food intake alcohol preference or body weight in male or female rats"
same,4-h alcohol intake,male and female rats; [3],did not alter the A 4-h alcohol intake (t9 = 0.36; P = 0.7264)
same,4-h food intake,male and female rats; [3],did not affect the E 4-h food intake (t9 = 1.51; P = 0.1657)
same,"preference for alcohol, 4-h",male and female rats; [3],did not alter the C preference for alcohol at the 4-h time point (t9 = 1.84; P = 0.0983)
same,24-h alcohol intake,male and female rats; [4],reduced the alcohol intake at the 24-h time point (t9 = 2.35; P = 0.0432)
same,24-h food intake,male and female rats; [4],increased the 24-h feeding (t9 = 2.64; P = 0.0271)
same,"preference for alcohol, 24-h",male and female rats; [4],decreased it at 24 h (t9 = 3.00; P = 0.0149)

# From paper PMC11224403, “Des-acyl ghrelin reduces alcohol intake and alcohol-induced reward in rodents” (Translational Psychiatry, 2024)
